Consider 114 compounds from a melting point compilation (Tetko et al.).

For the compound `Brc1ccc(C#Cc2ccc(Br)cc2)cc1`, the melting point was 182 to 184 °C.

`C=Cc1cc(C)ccc1C` gave a melting point of -35 °C.

Turning to `O=C(O)C(=S)CC1CCCC(CC(=S)C(=O)O)C1` (centres undefined), the melting point was found to be 85 °C.

`c1ccc(CN(CC2=NCCN2)c2ccccc2)cc1` registered a melting point of 120 °C.

`C(=C/c1ccco1)/c1ccc2cc3ccc(/C=C/c4ccco4)nc3cc2n1` yielded a melting point of 272 °C.

Take `CC(O)CNCCN` (centres undefined): the melting point is -50 °C.

`CC12CCC3C4CCC(=O)C=C4CCC3C1CCC2O` (centres undefined): the melting point stood at 122 °C.

As for `CCCC(=O)c1cc2ccccc2oc1=O`, the melting point was in the range of 93 to 94 °C.

Compound `O=C(O)c1ccc2c(c1)CCCC2` came in with a melting point of 156 °C.

As to `O=C(O)c1cccc2c1OCCCO2`, the melting point was in the range of 68 to 70 °C.

Compound `CC1(C)CC(=O)C2=C(C1)Nc1c(ccc3ccccc13)C2c1ccc(O)cc1` (centres undefined) showed a melting point of 312 °C.

As to `c1ccc(C23CC4CC(CC(C4)C2)C3)cc1`, the melting point lay within 84 to 85 °C.

On to `CCOC(=O)c1c(-c2ccc(OC)cc2)csc1N`, for which the melting point is 75 °C.

Take `COc1ccc(S(N)(=O)=O)cc1`: the melting point turned out to be 112 °C.

`Cc1ccc(N)c(C(=O)NN)c1` showed a melting point of 133 to 134 °C.

For the compound `C=CCN=C(S)NCCO`, the melting point is 78 °C.

In turn, `CC(C)(c1ccccc1)c1ccccc1` displayed a melting point of 29 °C.

The compound `O=C(O)[C@@H](O)CCN1C(=O)c2ccccc2C1=O` displayed a melting point of 157 to 159 °C.

For the compound `Nc1cccc(Br)n1`, the melting point is 90 °C.

Compound `CC(C)(C)OC(=O)N[C@@H](Cc1ccccc1F)C(=O)O` returned a melting point of 92 to 96 °C.

In turn, `COc1ccc(NC=C2C(=O)NN=C2c2c(O)c3ccccc3n(C)c2=O)cc1` registered a melting point of 281 °C.

For `O=C1CC2C(Cl)CC1C2C(=O)O` (centres undefined), the melting point lay within 157 to 160 °C.

In turn, `O=P(OCC(Br)CBr)(OCC(Br)CBr)OCC(Br)CBr` (centres undefined) returned a melting point of 5.5 °C.

The compound `CCOC(=O)c1cc(-c2cccs2)n(C)n1` showed a melting point of 38 to 41 °C.

Regarding `CC(=O)OC1CCC2(C)C(C1)CC1(OCCO1)C1C2CCC2(C)C1CCC21OCCO1` (centres undefined), the melting point lay within 205 to 210 °C.

Turning to `Oc1ccnc2ccc(C(F)(F)F)cc12`, the melting point was in the range of 265 to 268 °C.

`O=C(Nc1ccccc1)Nc1ccnc(Cl)c1`: the melting point is 167 °C.

Turning to `CC(C)c1ncc[nH]1`, the melting point stood at 129 °C.

As to `O=Cc1cc(Br)cs1`, the melting point was in the range of 46 to 47 °C.

For `CN(C)c1ccc(/C=C/C(=O)CCc2ccccc2)cc1`, the melting point was found to be 93 °C.

For the compound `FC(F)(F)c1cccc(Cl)c1`, the melting point is -56 °C.

For the compound `NS(=O)(=O)c1cc(S(=O)(=O)c2cccc(O)c2)cs1`, the melting point amounted to 145 °C.

Turning to `Oc1c(F)cccc1Cl`, the melting point was 63 °C.

Take `O=[N+]([O-])c1cc([N+](=O)[O-])c(OCCO)cc1OCCO`: the melting point was found to be 136 °C.

Consider `CNC=O`, for which the melting point is -3.2 °C.

With `COc1ccc(C(=O)OC2Cc3ccccc32)cc1` (centres undefined), the melting point is 124 °C.

For `O=C(O)C=CC(=O)Nc1cccc(Cl)c1`, the melting point was determined as 198 °C.

The compound `NCCCNCCNCCCN` yielded a melting point of -1.5 °C.

Regarding `O=[N+]([O-])c1ccc(S(=O)(=O)O)c([N+](=O)[O-])c1`, the melting point stood at 108 °C.

Turning to `NCc1ccc2sccc2c1`, the melting point was in the range of 41 to 43 °C.

Take `Fc1ccc(CBr)c(Cl)c1`: the melting point turned out to be 37 °C.

`CC1=NC(C)CNc2c1c(=O)n(-c1ccccc1)c1ccccc21` (centres undefined) yielded a melting point of 273 °C.

Compound `CCC1(CC)C(=O)NC(=O)N(C)C1=O` came in with a melting point of 155 °C.

For `COc1ccc(C)cc1N`, the melting point turned out to be 53 °C.

In the case of `OC(Cc1ccccc1)c1ccccc1` (centres undefined), the melting point amounted to 67 °C.

In the case of `COc1ccc(C/C(=N\O)C(=O)O)cc1`, the melting point was 159 °C.

The compound `CCCCCCCCOc1ccccc1` registered a melting point of 8 °C.

As for `CC(=O)OC1CC2(O)C(CCC3(C)C(c4ccc(=O)oc4)CCC32O)C2(C)CCC(OC3OC(CO)C(O)C(O)C3O)C=C12` (centres undefined), the melting point came to 169 °C.

Compound `COC(=O)c1ccc(C(=O)OC)c(C(=O)OC)c1` yielded a melting point of 39 °C.

With `Cc1ccnc(O)c1[N+](=O)[O-]`, the melting point was in the range of 228 to 232 °C.

For `Nc1nc(Br)c2ccccc2c1Cc1ccccc1`, the melting point fell in the range of 155 to 156 °C.

The compound `CC12CCC(/C(=C/Nc3ccccc3)C1=O)C2(C)C` (centres undefined) gave a melting point of 165 to 167 °C.

Regarding `COc1ccc(Cn2ncc(Cl)c(Cl)c2=O)cc1`, the melting point lay within 117 to 120 °C.

In turn, `CCC(Oc1c(I)cc(I)cc1I)C(=O)O` (centres undefined) displayed a melting point of 124 °C.

In turn, `O=C(O)COc1ccc(Br)cc1` had a melting point of 156 to 161 °C.

`O=C(NCCc1c[nH]cn1)C1=NC=NC1`: the melting point is 176 °C.

For `COC(=O)c1cc2ccsc2[nH]1`, the melting point is 127 to 129 °C.

As to `CCN(CC)C(=O)C1C=C2c3cccc4[nH]cc(c34)CC2N(C)C1` (centres undefined), the melting point turned out to be 82.5 °C.

In turn, `CSc1ncc(CO)n1Cc1ccccc1` returned a melting point of 109 to 111 °C.

As to `CC(=O)Nc1cc(Cl)ccc1C(=O)O`, the melting point was in the range of 202 to 207 °C.

In the case of `CCCC(=O)N(CSP(=S)(OC)OC)c1ccccc1Cl`, the melting point is 42 °C.

Compound `C=CCNC(N)=O` showed a melting point of 85 °C.

The compound `O=Cc1ccc2[nH]cnc2c1` registered a melting point of 159 to 161 °C.

With `OC1CSC(O)CS1` (centres undefined), the melting point fell in the range of 108 to 145 °C.

For the compound `O=Cc1cnc(Br)s1`, the melting point is 94 °C.

The compound `CCc1c(C(=O)O)c(=O)cnn1-c1ccc(Cl)cc1` yielded a melting point of 269 °C.

`Cn1ccnc1CO` yielded a melting point of 107 to 111 °C.

In turn, `COC(=O)C1=C(N)Oc2cc(C)[nH]c(=O)c2C1c1ccccc1` (centres undefined) yielded a melting point of 230 to 232 °C.

Regarding `CC(C)(C)c1ccc(CCOc2ncnc3ccccc23)cc1`, the melting point is 80.5 °C.

As for `CCC(=O)c1ccc(O)cc1`, the melting point was 150 °C.

`NC(=O)/C(=N\Nc1ccc(O)cc1)c1nc2ccccc2s1` registered a melting point of 160 °C.

In turn, `COC(=O)c1cccc2c1-c1ccccc1C2=O` came in with a melting point of 135 to 136 °C.

In turn, `N#CC(=Cc1ccc([N+](=O)[O-])cc1)C(N)=S` displayed a melting point of 311 °C.

For the compound `N#Cc1ccc(N)c(OC(F)(F)F)c1`, the melting point was 72 °C.

As to `CC(/C=C(\C)c1ccc(C)cc1)=NNc1ccc([N+](=O)[O-])cc1[N+](=O)[O-]`, the melting point fell in the range of 182 to 184 °C.

On to `O=C1CC[C@H](C(=O)O)O1`, for which the melting point lay in the range of 69 to 72 °C.

`O=C(Cc1ccccc1)C(=O)Cc1ccccc1` returned a melting point of 86 °C.

For `COc1c(C)c(C)c(OC)c(Br)c1C`, the melting point is 72 °C.

On to `N#CC1=C(N)Oc2c(c(C(F)(F)F)nn2-c2ccccc2)C1c1ccc(F)cc1` (centres undefined), for which the melting point amounted to 202 °C.

For `Cc1oncc1I`, the melting point lay in the range of 27 to 28 °C.

Regarding `CC(C=CC1(O)C(C)=CC(=O)CC1(C)C)=CC(=O)O` (centres undefined), the melting point came to 160 °C.

As for `CCOC(=O)C(CCc1ccccc1)NC(C)C(=O)N1C(=O)N(C)CC1C(=O)O` (centres undefined), the melting point is 139 °C.

Take `CC(=O)c1c(O)cccc1OCCC(C)C`: the melting point is 25 to 27 °C.

Turning to `CC(O)c1ccccc1` (centres undefined), the melting point was determined as 20 °C.

Regarding `CC(C)C1=CC2=CCC3C(C)(C(=O)O)CCCC3(C)C2CC1` (centres undefined), the melting point was 174 °C.

As to `NNC(=O)c1cc2ccccc2s1`, the melting point was found to be 186 °C.

`CC1C/C(=C\c2ccc([N+](=O)[O-])cc2)C(=O)/C(=C/c2ccc([N+](=O)[O-])cc2)C1` (centres undefined) registered a melting point of 192 to 193 °C.

Compound `CC(=O)C1CCC2C3CC(C)C4=CC(=O)CCC4(C)C3C(O)CC12C` (centres undefined) registered a melting point of 156 °C.

`CCCCCCCCCCCN`: the melting point is 16.5 °C.

As to `COc1ccccc1C(=O)Oc1ccc(/C=C/C(=O)c2ccccc2)cc1`, the melting point came out at 115 °C.

In turn, `C1C2CC3CC1CC(C2)C3` displayed a melting point of 267 °C.

For the compound `Cc1cc(O)cc(O)c1C`, the melting point amounted to 136 °C.

In turn, `CN(CC=CC#CC(C)(C)C)Cc1cccc2ccccc12` had a melting point of 196 °C.

`COS(=O)(=O)c1ccc(C)cc1`: the melting point worked out at 28.5 °C.

As for `CC1(C)CC(=O)C2=C(C1)OC1CCCCC21` (centres undefined), the melting point lay within 63 to 66 °C.

For the compound `CCCCCCCCCCOc1ccc(/C=N/c2ccc(/C=C/C(=O)OCC)cc2)cc1`, the melting point is 114 to 115 °C.

For `C=C(C)C(=O)OCC1CO1` (centres undefined), the melting point is -82 °C.

The compound `OCc1c2ccccc2cc2ccccc12` yielded a melting point of 163 °C.

Compound `O=C1CCCCCCCCC1=O` registered a melting point of 40.5 °C.

`O=C(O)CCCCC1CCSS1` (centres undefined) had a melting point of 60.5 °C.

With `OC(c1ccccc1)(c1ccccc1)[C@@H](c1ccccc1)N1CCCCC1`, the melting point was 158 °C.

For the compound `O=C(O)c1cccc(C(=O)O)c1O`, the melting point stood at 244 °C.

Take `Cc1ccc(-c2cc(N)[nH]n2)cc1`: the melting point lay within 153 to 154 °C.

In turn, `O=Cc1ccc(-c2cccc(C(=O)O)c2)cc1` displayed a melting point of 166 °C.

As for `NC(=O)C=Cc1ccc(C=CC(N)=O)cc1`, the melting point was 320 °C.

In the case of `CCCCCCOC(=O)CCCCC`, the melting point is -55 °C.

`CSc1ncc(Cl)c(C(=O)O)n1` showed a melting point of 200 °C.

With `Cc1ccccc1-n1ncc(C(=O)O)c1C`, the melting point was in the range of 142 to 147 °C.

On to `CCOC(CNC(=O)C(N)=O)OCC`, for which the melting point is 138 to 140 °C.

Turning to `O=C1c2ccccc2C(=O)c2c(Nc3cccc4c3C(=O)c3ccccc3C4=O)cccc21`, the melting point was found to be 300 °C.

As for `C[C@]12CC(=O)C[C@@]1(C)CC(=O)C2`, the melting point was 228 to 230 °C.

The compound `CN1CCc2cc(O)c(O)cc2C1` registered a melting point of 255 °C.

Compound `Cc1cn(C2CCC(CO)O2)c(=O)[nH]c1=O` (centres undefined) displayed a melting point of 156 °C.

Take `CCOC(=O)C(C#N)c1ccccc1[N+](=O)[O-]` (centres undefined): the melting point is 60 °C.

Broadly, the melting point is the temperature, or range, at which the solid turns liquid.
